Biological target: T1, recombinant human MetAP2 (Homo sapiens, UniProt P50579)
T1 construct: Flag; made in house; host or cells: Sf9 insect cells
Assay: Inhibition of recombinant human MetAP2 activity (MAS substrate, amino acid oxidase/Amplex red fluorescence)
Format: biochemical
Details: manganese enzyme, 30 minutes at 25° C., pH 7.5, 0.75 mM MAS substrate, 1% DMSO; read-out: Activity (MetAP2 IC50 class)
Method: Compounds are tested for their capacity to inhibit recombinant human MetAP2 activity using the following assay.
Human recombinant Flag-MetAP2 expressed in Sf9 cells followed by affinity purification and EDTA treatment to remove endogenous active site cation was dialysed against MnCl2 to produce the manganese enzyme used in the assay. The assay was carried out for 30 minutes at 25° C. in 50 mM HEPES buffer containing 100 mM NaCl, pH 7.5 the presence of 0.75 mM Methionine-Alanine-Serine (MAS) substrate and 50 μg/mL amino acid oxidase using a dilution of purified MetAP2 giving approximately 50,000 RFU control activity. Cleavage of the substrate by MetAP2 and oxidation of free methionine by amino acid oxidase was detected and quantified using fluorescence generated by Amplex red (10-acetyl-3,7-dihydroxyphenoxazine) in combination with horseradish peroxidase which detects H2O2 released during the oxidation step. The fluorescent signal was detected using a multiwell fluorimeter. Compounds were diluted in DMSO prior to addition to assay buffer, the final DMSO concentration in the assay being 1%.
The IC50 is defined as the concentration at which a given compound achieves 50% inhibition of control. IC50 values are calculated using the XLfit software package (version 2.0.5).

T1 sequence (P50579 whole entry): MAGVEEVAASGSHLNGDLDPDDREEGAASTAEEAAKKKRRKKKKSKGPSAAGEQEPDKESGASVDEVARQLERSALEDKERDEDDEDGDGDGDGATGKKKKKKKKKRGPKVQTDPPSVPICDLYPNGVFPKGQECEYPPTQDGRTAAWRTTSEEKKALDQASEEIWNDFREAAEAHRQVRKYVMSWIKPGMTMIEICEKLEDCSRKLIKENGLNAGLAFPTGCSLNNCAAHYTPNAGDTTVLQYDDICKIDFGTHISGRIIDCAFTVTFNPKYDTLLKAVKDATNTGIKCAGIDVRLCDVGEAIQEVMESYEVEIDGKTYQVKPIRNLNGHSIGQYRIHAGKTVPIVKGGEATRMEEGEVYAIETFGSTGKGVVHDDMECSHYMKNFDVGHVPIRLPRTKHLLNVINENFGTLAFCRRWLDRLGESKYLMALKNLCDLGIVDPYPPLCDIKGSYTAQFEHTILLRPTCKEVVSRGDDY

Compound	IC50
O=S(=O)(Nc1ccc2c(c1-c1nnn[nH]1)CCCC2)c1ccccc1 [N-[1-(1H-Tetrazol-5-yl)-5,6,7,8-tetrahydronaphthalen-2-yl]-benzenesulfonamide]	> 1000 nM
O=S(=O)(Nc1cccc(Br)c1-c1nnn[nH]1)c1ccccc1 [N-[3-Bromo-2-(1H-tetrazol-5-yl)-phenyl]-benzenesulfonamide]	> 1000 nM
O=S(=O)(Nc1cccc(C2CC2)c1-c1nnn[nH]1)c1ccccc1 [N-[3-Cyclopropyl-2-(1H-tetrazol-5-yl)-phenyl]-benzenesulfonamide]	< 1000 nM
COc1cccc(NS(=O)(=O)c2ccccc2)c1-c1nnn[nH]1 [N-[3-Methoxy-2-(1H-tetrazol-5-yl)-phenyl]-benzenesulfonamide]	< 1000 nM
Cc1cccc(NS(=O)(=O)c2ccccc2)c1-c1nnn[nH]1 [N-[3-Methyl-2-(1H-tetrazol-5-yl)-phenyl]-benzenesulfonamide]	> 1000 nM
